Test [1] has as its system mosquito larvae. In words: Insecticidal test against mosquito larvae. As to conditions: in vivo.
Test [2] deals with DBA/2 Ha mice with SMT-F subcutaneous tumors. The experiment in a line: Proto IX content of tissues of tumor-bearing mice fed the agent (Example 6). As to conditions: for concentration of Proto IX in tissue, Adrenal / concentration of Proto IX in tissue, Intestine / concentration of Proto IX in tissue, Kidneys / concentration of Proto IX in tissue, Liver / concentration of Proto IX in tissue, Tumor / Proto IX Mean Cps per gram, Intestine: 2000 ppm in feed; for Proto IX Mean Cps per gram, Adrenal / Proto IX Mean Cps per gram, Kidneys / Proto IX Mean Cps per gram, Liver / Proto IX Mean Cps per gram, Tumor / Weight of Tumor as excised: 2000 ppm in feed Days 2-10, sacrificed Day 10 (6j Day 7). It counts as in vivo. The procedure: In this Example the enzyme-inhibiting agents were added to the feed of tumor-bearing mice; for some of the mice, used as a control, no agent was added to the feed. The mice were then sacrificed and their kidneys, intestines, adrenal glands, liver and tumor were removed and analyzed for their content of Proto IX. The following enzyme-inhibiting agents were employed: [drawing 10]
More particularly, the mice were DBA/2 Ha mice which had been injected with SMT-F subcutaneous tumors on Day 0 in the right shoulder. The mice, individually housed, received untreated Purina Rodent Chow 5001 Mash on Day 1; thereafter on Days 2 through 10 the mice received the same Mash treated with 2000 ppm of the inhibiting agent being tested (or, for the controls, the same untreated Mash). The treatment of the Mash was effected by blending it with a small amount of an acetone solution of the agent to be tested. The mice were then sacrificed on Day 10, except for the mouse treated with the agent designated as 6j; the latter was sacrificed on Day 7. The tissues were refrigerated at 4° C. overnight, then blotted dry, and the fresh weight of each tissue sample was recorded. The tissues were then homogenized in 5 mL, or lo mL in the cases of intestines and liver, of acetone-0.1 N NH4 OH (9:I, v/v). The homogenates were then centrifuged at 1500 g and the supernatants were analyzed on a SPEX FAII2 spectrofluorometer; excitation 400 nm, emission 630 nm wavelengths, the optima for Proto IX. Proto IX accumulation was determined as CPS (fluorescent counts per second emitted) per gram of tissue. The results are tabulated below (results are averages for two mice for each treatment, except for treatments with agents 6f, 6h, 6i and 6j in each of which only one mouse was treated): […]

Test [3] concerns HeLa cells. The experiment in a line: Proto IX production in HeLa cells, extract of cells alone (Example 7). It counts as cell-based. As to conditions: Homo sapiens, 100 uM agent, first formula (background-subtracted), read-out: increase in the amount of Proto IX relative to the control. As for the experimental part: In a series of experiments along the lines of Examples 1 and 2, cultures of HeLa cells were incubated in the presence of 100 uM of various treating agents, listed below. The percentage given, next to each treating agent, indicates the increase in the amount of Proto IX produced in the presence of that treating agent relative to the amount produced by the control in the same experiment.
As in Examples 1 and 2, the data for this Example 7 were based on measurements of fluorescence (e.g. in counts per second, "cps"). In this Example, however, the measurements were made on an extract of the cells alone (in contrast to Examples 1 and 2 in which the disrupted cells and culture medium together were extracted), the fluorometric medium was the one described in Example 5 (containing 1% Tween-20, 50 mM Tris-HCl, 1 mM EDTA and 1 mM dithioerythritol, pH 8.5), and a cps measurement of the fluorometric medium per se was also made. In calculating the foregoing data for this Example, the following formula was used to calculate the percentage increases: [formula] where Ca is the counts per second for the sample resulting from treatment with the agent, Cc is the counts per second for the control sample, and Cm is the counts per second for the fluorometric medium per se (i.e. the background fluoroescence). On reviewing the data it was observed that Cc -Cm for this set of experiments was […] compared to Cm; for instance, individual measured values were 49025 and 52069 for Cc and 4295 for Cm. […] Accordingly, the data were recalculated using the formula: [formula] with the following results: 6a 336%; 5b 148%; 6c 154%; 6d 510%; 6e 320%; 6f 280%; 6g 329%; 6h 178%; 6i 171%; 6j 185%; 7a 118%; 7b 142%; 7c 103%; 7d 128%; 7e 173%; 7f 118%; 7q 155%; 7h 118%.

Test [4] has as its system HeLa cells. In words: Proto IX in HeLa cells and culture medium, cell growth observations (Example 8). The class given is cell-based, human. As to conditions: 100 μM agent. The procedure: In a manner similar to Examples 1 and 2, cultures of HeLa cells were incubated in the presence of 100 μM of various treating agents, listed below. The agent was added in dilute solution in dimethylsulfoxide (DMSO),and the controls contained 0.2% DMSO v/v. After such incubation the culture medium was poured off, removing it from the cells, the cells were loosened from the culture flasks by addition of 0.25% W/v trypsin Which remained in contact With the cells for 20 minutes at 37° C., after which a fluorometric medium was added to the flask. The fluorometric medium was the same as that described in Example 7 except that its pH was 6.5; this medium also acted as an extractant. The resulting extract was analyzed for proto IX content. The separated culture medium was also analyzed fluorometrically for Proto IX content. The pairs of percentages given, next to each treating agent, indicate the amount of Proto IX produced in the presence of that treating agent relative to the amount produced by the control in the same experiment; the first number of each pair relates to the concentration of Proto IX in the culture medium and the second number relates to the concentration in the cells. [drawing 12]

Test [5] deals with chondrosarcoma. In words: Photodynamic treatment of chondrosarcoma in rats fed the agent (Example 9). As to conditions: three rats, 2000 ppm in feed for 6 days, 630 nm light 270 J/cm^2. The class given is in vivo, Sprague-Dawley rats. The procedure:
Specifically, three Sprague-Dawley rats of average weight 120 g were placed on a diet of feed containing 2000 ppm of the agent for a period of 6 days. On day 3, chondrosarcoma was implanted into the right hind limb of each rat by injecting 0.3 mL of a suspension of the tumor cells (about one million tumor cells). On day 6 the right hind limb of each rat was shaven and depilated, the size of each tumor was measured, and the tumor area and surrounding skin were then exposed to non-thermal doses of 630 nm light for a total of 270 J/cm^2.
In another set of experiments, 20 of the rats were placed on the same diet as above (i.e. feed containing 2000 ppm of agent), provided ad libitum, for 10 days before the treatment with the light, and the injection of the tumor cell suspension was made after the animals had been on the diet for 7 days. Such an injection causes the formation of a tumor having a well defined vascular network within 1 to 2 days. At the time of the treatment with light the tumors had diameters of 5-8 mm and were free of evident necrosis.

For the molecule `CCOC(=O)C(Cl)Cc1cc(-n2nc(C)n(C(F)F)c2=O)c(F)cc1Cl` (centres unmarked), the “activity against mosquito larvae” value in test [1] is “active”.

`CCS(=O)(=O)Nc1cc(-n2nnn(CCCF)c2=O)c(F)cc1Cl` [Compound 8h]: in test [1], the “activity against mosquito larvae” value is given as “active”.

`CC(C)Oc1cc(-n2c(=O)n3n(c2=O)CCCC3)c(F)cc1Cl` [Agent 6h]: in test [2], the “concentration of Proto IX in tissue, Adrenal” value (shortened to “concentration … Adrenal”) was 21 ug of Proto IX per gram of tis; the “concentration of Proto IX in tissue, Intestine” value (“concentration … Intestine” for short) is 5 ug of Proto IX per gram of tis; the “concentration of Proto IX in tissue, Kidneys” value (from here on “concentration … Kidneys”) was 5 ug of Proto IX per gram of tis; the “concentration of Proto IX in tissue, Liver” value (“concentration … Liver” below) was 8 ug of Proto IX per gram of tis. Further, in test [2], the “concentration of Proto IX in tissue, Tumor” value (“concentration … Tumor” for short) is 3 ug of Proto IX per gram of tis; the “Proto IX Mean Cps per gram, Adrenal” value is 2259 Cps per gram × 10^3; the “Proto IX Mean Cps per gram, Kidneys” value is on record as 585 Cps per gram × 10^3; the “Proto IX Mean Cps per gram, Liver” value came out at 914 Cps per gram × 10^3. In addition, in test [2], the “Proto IX Mean Cps per gram, Tumor” value was 298 Cps per gram × 10^3 and the “Weight of Tumor as excised” value is on record as 192 mg. The “Proto IX Mean Cps per gram, Intestine” value in test [2] (undiluted samples (6j Day 7)) is on record as 584 Cps per gram × 10^3. Also, the activation at 100 µM in test [3] came out at 431%.

As to `CS(=O)(=O)NC(=O)c1cc(Oc2ccc(C(F)(F)F)cc2Cl)ccc1[N+](=O)[O-]` [Compound 8c], in test [4], the “activity in the test in Example 8 (Proto IX production)” value is “much less active than compound 6c”. In test [5], the “tumor regression on the day after light treatment” value is “did not produce any regression of the tumors”.

For the molecule `C#CCN1C(=O)COc2cc(F)c(N=c3sc(=S)n4n3CCCC4)cc21` [Agent 6j], in test [2], the “concentration … Adrenal” value was 4 ug of Proto IX per gram of tis; the “concentration … Intestine” value is listed as 5 ug of Proto IX per gram of tis; the “concentration … Kidneys” value was 3 ug of Proto IX per gram of tis; the “concentration … Liver” value is given as 5 ug of Proto IX per gram of tis. In test [2], the “concentration … Tumor” value is 11 ug of Proto IX per gram of tis; the “Proto IX Mean Cps per gram, Adrenal” value is given as 491 Cps per gram × 10^3; the “Proto IX Mean Cps per gram, Kidneys” value turned out to be 315 Cps per gram × 10^3; the “Proto IX Mean Cps per gram, Liver” value is given as 538 Cps per gram × 10^3. Further, in test [2], the “Proto IX Mean Cps per gram, Tumor” value came to 1251 Cps per gram × 10^3 and the “Weight of Tumor as excised” value is reported as 11 mg. For the same molecule, the “Proto IX Mean Cps per gram, Intestine” value in test [2] (undiluted samples (6j Day 7)) is listed as 572 Cps per gram × 10^3. The activation at 100 µM in test [3] amounted to 469%.

Take `C#CCN1C(=O)COc2cc(F)c(-n3nc4c(c3Cl)CCCC4)cc21` [Agent 6i]: in test [2], the “concentration … Adrenal” value is recorded as 337 ug of Proto IX per gram of tis; the “concentration … Intestine” value is given as 32 ug of Proto IX per gram of tis; the “concentration … Kidneys” value is on record as 37 ug of Proto IX per gram of tis; the “concentration … Liver” value is on record as 14 ug of Proto IX per gram of tis. Further, in test [2], the “concentration … Tumor” value is 9 ug of Proto IX per gram of tis; the “Proto IX Mean Cps per gram, Adrenal” value was found to be 36940 Cps per gram × 10^3; the “Proto IX Mean Cps per gram, Kidneys” value worked out at 4014 Cps per gram × 10^3; the “Proto IX Mean Cps per gram, Liver” value was 1510 Cps per gram × 10^3. In test [2], the “Proto IX Mean Cps per gram, Tumor” value stood at 932 Cps per gram × 10^3 and the “Weight of Tumor as excised” value is 20 mg. Moreover, the “Proto IX Mean Cps per gram, Intestine” value in test [2] (undiluted samples (6j Day 7)) is recorded as 3454 Cps per gram × 10^3. Also, the activation at 100 µM in test [3] amounted to 544%.

On to `CCOC(=O)C(C)Oc1ccc(Oc2cc(-n3nc(C)n(C(F)F)c3=O)c(F)cc2Cl)cc1` (centres unmarked) [Agent 6a], for which, in test [2], the “concentration … Adrenal” value was 60 ug of Proto IX per gram of tis; the “concentration … Intestine” value is listed as 54 ug of Proto IX per gram of tis; the “concentration … Kidneys” value is 99 ug of Proto IX per gram of tis; the “concentration … Liver” value is 39 ug of Proto IX per gram of tis. For the same molecule, in test [2], the “concentration … Tumor” value is 11 ug of Proto IX per gram of tis; the “Proto IX Mean Cps per gram, Adrenal” value came to 6572 Cps per gram × 10^3; the “Proto IX Mean Cps per gram, Kidneys” value was 10817 Cps per gram × 10^3; the “Proto IX Mean Cps per gram, Liver” value is reported as 4291 Cps per gram × 10^3. In test [2], the “Proto IX Mean Cps per gram, Tumor” value is given as 1203 Cps per gram × 10^3 and the “Weight of Tumor as excised” value came out at 143 mg. Moreover, in test [2] (samples diluted with 3 parts basic acetone to one part sample), the “Proto IX Mean Cps per gram, Intestine” value is 5870 Cps per gram × 10^3. In addition, the activation at 100 µM in test [3] came out at 337%. The “activity against mosquito larvae” value in test [1] was “active”.

Values taken from patent US5298502A, “Method and composition for photodynamic treatment and detection of tumors” (priority 1991, dated 1994).
